According to ChEMBL document CHEMBL3880428, “Sulfonamide derivative having PGD2 receptor antagonistic activity” (2012):

What was measured:
Type in all cases: cell-based
HEK293 [1] = test: Selectivity ratio of IC50 for PGD2 receptor in human platelets to IC50 for human EP2 receptor expressed in HEK293 cells by cAMP accumulation assay
HEK293 [2] = test: Selectivity ratio of IC50 for PGD2 receptor in human platelets to IC50 for human EP1 receptor expressed in HEK293 cells by cAMP accumulation assay
HEK293 [3] = test: Selectivity ratio of IC50 for PGD2 receptor in human platelets to IC50 for human IP receptor expressed in HEK293 cells by cAMP accumulation assay
HEK293 [4] = test: Selectivity ratio of IC50 for PGD2 receptor in human platelets to IC50 for human TP receptor expressed in HEK293 cells by cAMP accumulation assay
HEK293 [5] = test: Selectivity ratio of IC50 for PGD2 receptor in human platelets to IC50 for human EP4 receptor expressed in HEK293 cells by cAMP accumulation assay
HEK293 [6] = test: Selectivity ratio of IC50 for PGD2 receptor in human platelets to IC50 for human FP receptor expressed in HEK293 cells by cAMP accumulation assay
HEK293 [7] = test: Selectivity ratio of IC50 for PGD2 receptor in human platelets to IC50 for human EP3 receptor expressed in HEK293 cells by cAMP accumulation assay

Measured: Ratio IC50

CC(C)Oc1ccc(S(=O)(=O)N2CCN(c3ccc(C(=O)Nc4nc5ccccc5[nH]4)c(OCC(=O)O)c3)CC2)cc1
> 20: HEK293 [1] | HEK293 [2] | HEK293 [3] | HEK293 [4] | HEK293 [5] | HEK293 [6] | HEK293 [7]

CC(C)Oc1ccc(S(=O)(=O)N2CCN(c3ccc(C(=O)NC4CC4)c(OCC(=O)O)c3)CC2)cc1
> 20: HEK293 [1] | HEK293 [2] | HEK293 [3] | HEK293 [4] | HEK293 [5] | HEK293 [6] | HEK293 [7]

COCC#Cc1cc(OCC(=O)O)cc(N2CCN(S(=O)(=O)c3ccc(OC(C)C)cc3)CC2)c1
> 20: HEK293 [1] | HEK293 [2] | HEK293 [3] | HEK293 [4] | HEK293 [5] | HEK293 [6] | HEK293 [7]

CC(C)Oc1ccc(S(=O)(=O)N2CCN(c3cc(OCC(=O)O)cc(-c4ccoc4)c3)CC2)cc1
> 20: HEK293 [1] | HEK293 [2] | HEK293 [3] | HEK293 [4] | HEK293 [5] | HEK293 [6] | HEK293 [7]

CC(C)Oc1ccc(S(=O)(=O)N2CCN(c3ccc(Oc4ccccc4)c(OCC(=O)O)c3)CC2)cc1
> 20: HEK293 [1] | HEK293 [2] | HEK293 [3] | HEK293 [4] | HEK293 [5] | HEK293 [6] | HEK293 [7]

CC(C)Oc1ccc(S(=O)(=O)N2CCN(c3ccc(NC(=O)c4ccco4)c(OCC(=O)O)c3)CC2)cc1
> 20: HEK293 [1] | HEK293 [2] | HEK293 [3] | HEK293 [4] | HEK293 [5] | HEK293 [6] | HEK293 [7]

CC(C)Oc1ccc(S(=O)(=O)N2CCC(Oc3ccc(Cl)cc3CCC(=O)O)CC2)cc1
> 20: HEK293 [1] | HEK293 [2] | HEK293 [3] | HEK293 [4] | HEK293 [5] | HEK293 [6] | HEK293 [7]

CC(C)Oc1ccc(S(=O)(=O)N2CCN(c3ccc(C(=O)Nc4ccn(C)n4)c(OCC(=O)O)c3)CC2)cc1
> 20: HEK293 [1] | HEK293 [2] | HEK293 [3] | HEK293 [4] | HEK293 [5] | HEK293 [6] | HEK293 [7]

CC(C)Oc1ccc(S(=O)(=O)N2CCN(c3ccc(C#N)c(OCC(=O)O)c3)CC2)cc1
> 20: HEK293 [1] | HEK293 [2] | HEK293 [3] | HEK293 [4] | HEK293 [5] | HEK293 [6] | HEK293 [7]

CNC(=O)c1ccc(N2CCN(S(=O)(=O)c3ccc(OC(C)C)cc3)CC2)cc1OCC(=O)O
> 20: HEK293 [1] | HEK293 [2] | HEK293 [3] | HEK293 [4] | HEK293 [5] | HEK293 [6] | HEK293 [7]

Cc1cnc(-c2ccc(N3CCN(S(=O)(=O)c4ccc(OC(C)C)cc4)CC3)cc2OCC(=O)O)o1
> 20: HEK293 [1] | HEK293 [2] | HEK293 [3] | HEK293 [4] | HEK293 [5] | HEK293 [6] | HEK293 [7]

CC(C)Oc1ccc(S(=O)(=O)N2CCN(c3ccc(-c4cocn4)c(OCC(=O)O)c3)CC2)cc1
> 20: HEK293 [1] | HEK293 [2] | HEK293 [3] | HEK293 [4] | HEK293 [5] | HEK293 [6] | HEK293 [7]

CC(C)Oc1ccc(S(=O)(=O)N2CCN(c3ccc(Cl)c(OCC(=O)O)c3)CC2)cc1
> 20: HEK293 [1] | HEK293 [2] | HEK293 [3] | HEK293 [4] | HEK293 [5] | HEK293 [6] | HEK293 [7]

Cc1cc(C(=O)Nc2ccc(N3CCN(S(=O)(=O)c4ccc(OC(C)C)cc4)CC3)cc2OCC(=O)O)no1
> 20: HEK293 [1] | HEK293 [2] | HEK293 [3] | HEK293 [4] | HEK293 [5] | HEK293 [6] | HEK293 [7]

CC(C)Oc1ccc(S(=O)(=O)N2CCN(c3ccc(C(=O)NCc4ccccn4)c(OCC(=O)O)c3)CC2)cc1
> 20: HEK293 [1] | HEK293 [2] | HEK293 [3] | HEK293 [4] | HEK293 [5] | HEK293 [6] | HEK293 [7]

CC(C)Oc1ccc(S(=O)(=O)N2CCN(c3cc(Cl)cc(OCC(=O)O)c3)CC2)cc1
> 20: HEK293 [1] | HEK293 [2] | HEK293 [3] | HEK293 [4] | HEK293 [5] | HEK293 [6] | HEK293 [7]

CC(C)Oc1ccc(S(=O)(=O)N2CCN(c3cc(F)c(F)c(OCC(=O)O)c3)CC2)cc1
> 20: HEK293 [1] | HEK293 [2] | HEK293 [3] | HEK293 [4] | HEK293 [5] | HEK293 [6] | HEK293 [7]

COc1cccc(OC2CCN(S(=O)(=O)c3ccc(OC(C)C)cc3)CC2)c1/C=C/C(=O)O
> 20: HEK293 [1] | HEK293 [2] | HEK293 [3] | HEK293 [4] | HEK293 [5] | HEK293 [6] | HEK293 [7]

CC(C)Oc1ccc(S(=O)(=O)N2CCN(c3cc(OCC(=O)O)ccc3Cl)CC2)cc1
> 20: HEK293 [1] | HEK293 [2] | HEK293 [3] | HEK293 [4] | HEK293 [5] | HEK293 [6] | HEK293 [7]

CC(C)Oc1ccc(S(=O)(=O)N2CCN(c3cc(OCC(=O)O)cc(C(F)(F)F)c3)CC2)cc1
> 20: HEK293 [1] | HEK293 [2] | HEK293 [3] | HEK293 [4] | HEK293 [5] | HEK293 [6] | HEK293 [7]

CC(C)Oc1ccc(S(=O)(=O)N2CCN(c3ccc(Br)c(OCC(=O)O)n3)CC2)cc1
> 20: HEK293 [1] | HEK293 [2] | HEK293 [3] | HEK293 [4] | HEK293 [5] | HEK293 [6] | HEK293 [7]

CC(C)Oc1ccc(S(=O)(=O)N2CCN(c3ccc(C(N)=O)c(OCC(=O)O)c3)CC2)cc1
> 20: HEK293 [1] | HEK293 [2] | HEK293 [3] | HEK293 [4] | HEK293 [5] | HEK293 [6] | HEK293 [7]

CC(C)Oc1ccc(S(=O)(=O)N2CCN(c3ccc(Cl)c(OCC(=O)O)c3)CC2)cn1
> 20: HEK293 [1] | HEK293 [2] | HEK293 [3] | HEK293 [4] | HEK293 [5] | HEK293 [6] | HEK293 [7]

CC(C)Oc1ccc(S(=O)(=O)N2CCN(c3ccc(Cl)c(CC(=O)O)c3)CC2)cc1
> 20: HEK293 [1] | HEK293 [2] | HEK293 [3] | HEK293 [4] | HEK293 [5] | HEK293 [6] | HEK293 [7]

CC(C)Oc1ccc(S(=O)(=O)N2CCN(c3cc(F)cc(OCC(=O)O)c3)CC2)cc1
> 20: HEK293 [1] | HEK293 [2] | HEK293 [3] | HEK293 [4] | HEK293 [5] | HEK293 [6] | HEK293 [7]

COc1cccc(OC2CCN(S(=O)(=O)c3ccc(OC(C)C)cc3)CC2)c1CCC(=O)O
> 20: HEK293 [1] | HEK293 [2] | HEK293 [3] | HEK293 [4] | HEK293 [5] | HEK293 [6] | HEK293 [7]

CC(C)Oc1ccc(S(=O)(=O)N2CCN(c3ccc(C(=O)Nc4cc(C5CC5)n[nH]4)c(OCC(=O)O)c3)CC2)cc1
> 20: HEK293 [1] | HEK293 [2] | HEK293 [3] | HEK293 [4] | HEK293 [5] | HEK293 [6] | HEK293 [7]

CC(C)OC(=O)Nc1ccc(N2CCN(S(=O)(=O)c3ccc(OC(C)C)cc3)CC2)cc1OCC(=O)O
> 20: HEK293 [1] | HEK293 [2] | HEK293 [3] | HEK293 [4] | HEK293 [5] | HEK293 [6] | HEK293 [7]

CC(C)NC(=O)Nc1ccc(N2CCN(S(=O)(=O)c3ccc(OC(C)C)cc3)CC2)cc1OCC(=O)O
> 20: HEK293 [1] | HEK293 [2] | HEK293 [3] | HEK293 [4] | HEK293 [5] | HEK293 [6] | HEK293 [7]

CCCNC(=O)c1ccc(N2CCN(S(=O)(=O)c3ccc(OC(C)C)cc3)CC2)cc1OCC(=O)O
> 20: HEK293 [1] | HEK293 [2] | HEK293 [3] | HEK293 [4] | HEK293 [5] | HEK293 [6] | HEK293 [7]

CC(C)Oc1ccc(S(=O)(=O)N2CCN(c3ccc([N+](=O)[O-])c(OCC(=O)O)c3)CC2)cc1
> 20: HEK293 [1] | HEK293 [2] | HEK293 [3] | HEK293 [4] | HEK293 [5] | HEK293 [6] | HEK293 [7]

CC(C)Oc1ccc(S(=O)(=O)N2CCN(c3ccc(NC(=O)c4ccccn4)c(OCC(=O)O)c3)CC2)cc1
> 20: HEK293 [1] | HEK293 [2] | HEK293 [3] | HEK293 [4] | HEK293 [5] | HEK293 [6] | HEK293 [7]

CC(C)Oc1ccc(S(=O)(=O)N2CCN(c3ccc(Cl)c(OCC(=O)O)c3)CC2)cc1F
> 20: HEK293 [1] | HEK293 [2] | HEK293 [3] | HEK293 [4] | HEK293 [5] | HEK293 [6] | HEK293 [7]
